According to patent US11759455B2, “Substituted 1H-imidazo[4,5-b]pyridin-2(3H)-ones and their use as GLUN2B receptor modulators” (JANSSEN PHARMACEUTICA NV, priority 2016, dated 2023):
Read-outs that look alike come from different tables or passages of the source.

Biological target: T1, human GluN1/GluN2B NMDA receptors (Homo sapiens, UniProt Q13224)
T1 construct: expressed in transfected cells
Test: Cell-based calcium flux (FLIPR) assay on cloned human NR1/NR2B ion channels expressed in mammalian cells (standard and HTS buffer variants);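 further: stable Tet-On inducible cell line, Ca2+ influx triggered by glutamate at about EC40 plus 10 µM glycine, fluorescent dye read-out over 5 min, normalized to control wells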

[1] = standard assay buffer (0.5 mM MgCl2 in dye loading buffer; 137 mM NaCl, 4 mM KCl in assay buffer), human GluN1/GluN2B, read-out: NR2B IC50 (μM) standard assay
[2] = standard assay buffer (0.5 mM MgCl2 dye loading; 137 mM NaCl, 4 mM KCl assay buffer), human GluN1/GluN2B cells, read-out: NR2B IC50 (μM) standard assay
[3] = HTS assay buffer (1.5 mM MgCl2 in dye loading buffer; 150 mM NaCl, 3 mM KCl in assay buffer), human GluN1/GluN2B, read-out: NR2B IC50 (μM) HTS assay

T1 sequence (Q13224 27-1484, other chains not shown): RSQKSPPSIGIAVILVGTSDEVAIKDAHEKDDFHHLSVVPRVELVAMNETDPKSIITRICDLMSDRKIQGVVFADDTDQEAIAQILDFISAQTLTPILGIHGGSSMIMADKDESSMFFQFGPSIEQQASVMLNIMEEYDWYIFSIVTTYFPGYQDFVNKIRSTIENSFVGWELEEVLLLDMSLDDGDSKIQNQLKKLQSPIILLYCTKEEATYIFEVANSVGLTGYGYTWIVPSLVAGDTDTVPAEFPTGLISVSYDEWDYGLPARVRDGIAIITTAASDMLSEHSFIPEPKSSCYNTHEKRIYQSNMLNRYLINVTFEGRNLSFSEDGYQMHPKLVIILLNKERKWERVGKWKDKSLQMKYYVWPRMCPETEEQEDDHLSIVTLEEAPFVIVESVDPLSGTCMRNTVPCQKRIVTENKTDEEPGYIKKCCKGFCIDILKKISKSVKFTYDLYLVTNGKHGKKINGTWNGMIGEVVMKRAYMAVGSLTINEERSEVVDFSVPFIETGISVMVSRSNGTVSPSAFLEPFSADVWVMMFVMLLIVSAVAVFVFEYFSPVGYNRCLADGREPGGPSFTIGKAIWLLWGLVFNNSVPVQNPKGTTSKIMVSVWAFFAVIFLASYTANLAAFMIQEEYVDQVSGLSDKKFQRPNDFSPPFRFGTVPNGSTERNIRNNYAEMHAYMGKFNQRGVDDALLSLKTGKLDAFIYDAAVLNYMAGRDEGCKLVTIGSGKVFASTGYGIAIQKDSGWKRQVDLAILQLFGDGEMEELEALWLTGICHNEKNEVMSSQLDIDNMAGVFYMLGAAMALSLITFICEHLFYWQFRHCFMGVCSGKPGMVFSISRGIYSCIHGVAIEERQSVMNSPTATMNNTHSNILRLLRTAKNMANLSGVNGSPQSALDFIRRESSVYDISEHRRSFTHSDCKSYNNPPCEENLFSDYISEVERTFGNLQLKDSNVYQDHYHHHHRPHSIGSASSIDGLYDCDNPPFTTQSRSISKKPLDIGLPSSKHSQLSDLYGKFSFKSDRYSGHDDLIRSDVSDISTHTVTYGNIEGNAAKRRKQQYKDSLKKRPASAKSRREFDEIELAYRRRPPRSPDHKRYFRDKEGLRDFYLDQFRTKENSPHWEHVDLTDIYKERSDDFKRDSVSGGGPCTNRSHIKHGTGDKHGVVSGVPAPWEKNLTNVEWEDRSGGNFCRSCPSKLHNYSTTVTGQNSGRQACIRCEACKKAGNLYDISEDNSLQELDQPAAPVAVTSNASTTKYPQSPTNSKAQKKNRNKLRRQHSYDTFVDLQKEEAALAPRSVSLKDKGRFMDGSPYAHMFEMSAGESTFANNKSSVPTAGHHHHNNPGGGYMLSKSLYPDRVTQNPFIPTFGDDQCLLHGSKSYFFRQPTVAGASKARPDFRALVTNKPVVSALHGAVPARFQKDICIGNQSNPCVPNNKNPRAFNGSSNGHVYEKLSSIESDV

Question: Which IC50 [1] does the source give for `O=C(Cn1c(=O)[nH]c2ncc(-c3ccc(C(F)(F)F)s3)cc21)N1CC(F)C1` [Example 578, 1-[2-(3-Fluoroazetidin-1-yl)-2-oxo-ethyl]-6-[5-(trifluoromethyl)-2-thienyl]-3H-imidazo[4,5-b]pyridin-2-one] here?
Answer: 0.014 µM

Question: How did the IC50 [2] turn out when `Cn1c(=O)n(Cc2cncnc2)c2cc(-c3cccc(F)c3)cnc21` [Example 54, 6-(3-Fluorophenyl)-3-methyl-1-(pyrimidin-5-ylmethyl)imidazo[4,5-b]pyridin-2-one] was run?
Answer: 0.61 µM

Question: `Cn1c(=O)n(CC(=O)N2CCC(F)(F)C2)c2cc(-c3cccc(C(F)(F)F)c3)cnc21` [Example 196, 1-[2-(3,3-Difluoropyrrolidin-1-yl)-2-oxo-ethyl]-3-methyl-6-[3-(trifluoromethyl)phenyl]imidazo[4,5-b]pyridin-2-one] was tested. Which IC50 [2] did it give?
Answer: 0.182 µM

Question: `Cc1cccc(C)c1-c1cnc2[nH]c(=O)n(CCN3CCCC3)c2c1` [Example 178, 6-(2,6-Dimethylphenyl)-1-(2-pyrrolidin-1-ylethyl)-3H-imidazo[4,5-b]pyridin-2-one] was tested. Which IC50 [2] did it give?
Answer: 20.7 µM

Question: How did the IC50 [1] turn out when `CN(C)C(=O)Cn1c(=O)n(C)c2ncc(-c3cccc(C(F)(F)F)c3F)cc21` [Example 424, 2-[6-[2-Fluoro-3-(trifluoromethyl)phenyl]-3-methyl-2-oxo-imidazo[4,5-b]pyridin-1-yl]-N,N-dimethyl-acetamide] was run?
Answer: 0.028 µM

Question: `Cc1csc(-c2cnc3c(c2)n(Cc2cc(C)on2)c(=O)n3C)c1` [Example 14, 3-Methyl-1-[(5-methylisoxazol-3-yl)methyl]-6-(4-methyl-2-thienyl)imidazo[4,5-b]pyridin-2-one] was tested. Which IC50 [2] did it give?
Answer: 0.097 µM

Question: For `Cc1cncc(Cn2c(=O)[nH]c3ncc(-c4cc(F)cc(F)c4)cc32)c1` [Example 311, 6-(3,5-Difluorophenyl)-1-[(5-methyl-3-pyridyl)methyl]-3H-imidazo[4,5-b]pyridin-2-one], which IC50 [2] is on record?
Answer: 0.028 µM

Question: `CCOc1ccc(F)cc1-c1cnc2[nH]c(=O)n(Cc3cccc(F)c3)c2c1` [Example 494, 6-(2-Ethoxy-5-fluoro-phenyl)-1-[(3-fluorophenyl)methyl]-3H-imidazo[4,5-b]pyridin-2-one] was tested. Which IC50 [3] did it give?
Answer: 5.64 µM

Question: `Cc1cc(-c2cnc3[nH]c(=O)n(Cc4ncccc4C)c3c2)ccc1F` [Example 316, 6-(4-Fluoro-3-methyl-phenyl)-1-[(3-methyl-2-pyridyl)methyl]-3H-imidazo[4,5-b]pyridin-2-one] was tested. Which IC50 [2] did it give?
Answer: 0.114 µM

Question: With `Cn1c(=O)n(CC(=O)N2CC(F)C2)c2cc(-c3ccc(Cl)c(OC(F)F)c3)cnc21` [Example 593, 6-[4-Chloro-3-(difluoromethoxy)phenyl]-1-[2-(3-fluoroazetidin-1-yl)-2-oxo-ethyl]-3-methyl-imidazo[4,5-b]pyridin-2-one] as the compound, how does the IC50 [1] read?
Answer: 0.053 µM

Question: Which IC50 [2] does the source give for `Cc1cc(-c2cnc3c(c2)n(Cc2ccncc2)c(=O)n3C)ccc1F` [Example 46, 6-(4-Fluoro-3-methyl-phenyl)-3-methyl-1-(4-pyridylmethyl)imidazo[4,5-b]pyridin-2-one] here?
Answer: 0.6 µM

Question: For `Cc1cc(Cn2c(=O)[nH]c3ncc(-c4ccccc4)cc32)no1` [Example 11, 1-[(5-Methylisoxazol-3-yl)methyl]-6-phenyl-3H-imidazo[4,5-b]pyridin-2-one], which IC50 [2] is on record?
Answer: 0.088 µM

Question: `Cn1c(=O)n(CC(=O)NCCCCl)c2cc(-c3ccc(C(F)(F)F)s3)cnc21` [Example 532, N-(3-Chloropropyl)-2-[3-methyl-2-oxo-6-[5-(trifluoromethyl)-2-thienyl]imidazo[4,5-b]pyridin-1-yl]acetamide] was tested. Which IC50 [1] did it give?
Answer: 0.862 µM

Question: For `COc1ccc(-c2cnc3[nH]c(=O)n(CC(=O)NC4CC4)c3c2)cc1C` [Example 451, N-Cyclopropyl-2-[6-(4-methoxy-3-methyl-phenyl)-2-oxo-3H-imidazo[4,5-b]pyridin-1-yl]acetamide], which IC50 [3] is on record?
Answer: 1.03 µM

Question: For `O=c1[nH]c2ncc(-c3ccc(F)c(Cl)c3)cc2n1Cc1ccc(F)cc1` [Example 502, 6-(3-Chloro-4-fluoro-phenyl)-1-[(4-fluorophenyl)methyl]-3H-imidazo[4,5-b]pyridin-2-one], which IC50 [3] is on record?
Answer: 4.86 µM

Question: `Cc1cc(C)cc(-c2cnc3[nH]c(=O)n(Cc4cc(C)on4)c3c2)c1` [Example 516, 6-(3,5-Dimethylphenyl)-1-[(5-methylisoxazol-3-yl)methyl]-3H-imidazo[4,5-b]pyridin-2-one] was tested. Which IC50 [1] did it give?
Answer: 0.491 µM

Question: How did the IC50 [2] turn out when `Cc1cncc(Cn2c(=O)[nH]c3ncc(-c4ccc(F)c(C(F)(F)F)c4)cc32)c1` [Example 309, 6-[4-Fluoro-3-(trifluoromethyl)phenyl]-1-[(5-methyl-3-pyridyl)methyl]-3H-imidazo[4,5-b]pyridin-2-one] was run?
Answer: 0.316 µM

Question: Which IC50 [2] does the source give for `Cc1c(F)ccc(-c2cnc3c(c2)n(Cc2ccncc2)c(=O)n3C)c1F` [Example 66, 6-(2,4-Difluoro-3-methyl-phenyl)-3-methyl-1-(4-pyridylmethyl)imidazo[4,5-b]pyridin-2-one] here?
Answer: 0.725 µM

Question: Which IC50 [2] does the source give for `Cn1c(=O)n(Cc2ccncc2)c2cc(-c3ccc(F)c(F)c3)cnc21` [Example 58, 6-(3,4-Difluorophenyl)-3-methyl-1-(4-pyridylmethyl)imidazo[4,5-b]pyridin-2-one] here?
Answer: 1.9 µM

Question: For `COc1ccc(-c2cnc3[nH]c(=O)n(Cc4ccccc4C#N)c3c2)c(OC)c1` [Example 487, 2-[[6-(2,4-Dimethoxyphenyl)-2-oxo-3H-imidazo[4,5-b]pyridin-1-yl]methyl]benzonitrile], which IC50 [3] is on record?
Answer: 2.57 µM

Question: For `Cc1cc(-c2cnc3c(c2)n(Cc2cnccn2)c(=O)n3C)ccc1F` [Example 47, 6-(4-Fluoro-3-methyl-phenyl)-3-methyl-1-(pyrazin-2-ylmethyl)imidazo[4,5-b]pyridin-2-one], which IC50 [2] is on record?
Answer: 0.113 µM

Question: With `CN(C)C(=O)Cn1c(=O)n(C)c2ncc(-c3ccc(F)c(C(F)F)c3)cc21` [Example 533, 2-[6-[3-(Difluoromethyl)-4-fluoro-phenyl]-3-methyl-2-oxo-imidazo[4,5-b]pyridin-1-yl]-N,N-dimethyl-acetamide] as the compound, how does the IC50 [1] read?
Answer: 0.025 µM

Question: How did the IC50 [1] turn out when `Cn1c(=O)n(Cc2cccnn2)c2cc(-c3ccc(F)c(Cl)c3)cnc21` [Example 380, 6-(3-Chloro-4-fluoro-phenyl)-3-methyl-1-(pyridazin-3-ylmethyl)imidazo[4,5-b]pyridin-2-one] was run?
Answer: 0.016 µM

Question: `O=c1[nH]c2ncc(-c3ccc(F)cc3)cc2n1Cc1cccnc1` [Example 295, 6-(4-Fluorophenyl)-1-(3-pyridylmethyl)-3H-imidazo[4,5-b]pyridin-2-one] was tested. Which IC50 [2] did it give?
Answer: 0.098 µM

Question: With `Cc1cc(-c2cnc3c(c2)n(Cc2cncc(Cl)c2)c(=O)n3C)ccc1F` [Example 367, 1-[(5-Chloro-3-pyridyl)methyl]-6-(4-fluoro-3-methyl-phenyl)-3-methyl-imidazo[4,5-b]pyridin-2-one] as the compound, how does the IC50 [1] read?
Answer: 0.117 µM

Question: Which IC50 [2] does the source give for `O=c1[nH]c2ncc(-c3ccccc3)cc2n1CCN1CCCC1` [Example 180, 6-Phenyl-1-(2-pyrrolidin-1-ylethyl)-3H-imidazo[4,5-b]pyridin-2-one] here?
Answer: 0.539 µM

Question: For `O=C(Cn1c(=O)[nH]c2ncc(-c3cccc(C(F)(F)F)c3)cc21)Nc1ccccn1` [Example 208, 2-[2-Oxo-6-[3-(trifluoromethyl)phenyl]-3H-imidazo[4,5-b]pyridin-1-yl]-N-(2-pyridyl)acetamide], which IC50 [2] is on record?
Answer: > 10 µM

Question: How did the IC50 [1] turn out when `Cc1c(F)ccc(-c2cnc3c(c2)n(Cc2cccnc2)c(=O)n3C)c1F` [Example 339, 6-(2,4-Difluoro-3-methyl-phenyl)-3-methyl-1-(3-pyridylmethyl)imidazo[4,5-b]pyridin-2-one] was run?
Answer: 0.034 µM

Question: How did the IC50 [3] turn out when `O=c1[nH]c2ncc(-c3cc(F)cc(F)c3)cc2n1CC1CC1` [Example 470, 1-(Cyclopropylmethyl)-6-(3,5-difluorophenyl)-3H-imidazo[4,5-b]pyridin-2-one] was run?
Answer: 0.509 µM

Question: For `O=C(Cn1c(=O)[nH]c2ncc(-c3cccc(C(F)(F)F)c3)cc21)NC1CC(F)(F)C1` [Example 195, N-(3,3-Difluorocyclobutyl)-2-[2-oxo-6-[3-(trifluoromethyl)phenyl]-3H-imidazo[4,5-b]pyridin-1-yl]acetamide], which IC50 [2] is on record?
Answer: 0.007 µM

Question: How did the IC50 [2] turn out when `Cn1c(=O)n(Cc2ccccn2)c2cc(-c3cccc(F)c3)cnc21` [Example 53, 6-(3-Fluorophenyl)-3-methyl-1-(2-pyridylmethyl)imidazo[4,5-b]pyridin-2-one] was run?
Answer: 1.4 µM

Question: Which IC50 [2] does the source give for `O=C(O)Cn1c(=O)[nH]c2ncc(-c3cccc(C(F)(F)F)c3)cc21` [Example 135, 2-[2-Oxo-6-[3-(trifluoromethyl)phenyl]-3H-imidazo[4,5-1D]pyridin-1-yl]acetic Acid] here?
Answer: 6 µM

Question: `CN(C)C(=O)Cn1c(=O)n(C)c2ncc(-c3csc(C(F)(F)F)c3)cc21` [Example 101, N,N-Dimethyl-2-[3-methyl-2-oxo-6-[5-(trifluoromethyl)-3-thienyl]imidazo[4,5-b]pyridin-1-yl]acetamide] was tested. Which IC50 [2] did it give?
Answer: 0.019 µM

Question: How did the IC50 [2] turn out when `Cn1c(=O)n(Cc2cccnn2)c2cc(-c3csc(C(F)(F)F)c3)cnc21` [Example 103, 3-Methyl-1-(pyridazin-3-ylmethyl)-6-[5-(trifluoromethyl)-3-thienyl]imidazo[4,5-b]pyridin-2-one] was run?
Answer: 0.017 µM

Question: With `Cn1c(=O)n(Cc2cncc(F)c2)c2cc(-c3ccc(Cl)c(OC(F)F)c3)cnc21` [Example 544, 6-[4-Chloro-3-(difluoromethoxy)phenyl]-1-[(5-fluoro-3-pyridyl)methyl]-3-methyl-imidazo[4,5-b]pyridin-2-one] as the compound, how does the IC50 [1] read?
Answer: 0.09 µM

Question: How did the IC50 [1] turn out when `Cc1cccc(-c2cnc3c(c2)n(CC(=O)N2CC(F)(F)C2)c(=O)n3C)c1F` [Example 418, 1-[2-(3,3-Difluoroazetidin-1-yl)-2-oxo-ethyl]-6-(2-fluoro-3-methyl-phenyl)-3-methyl-imidazo[4,5-b]pyridin-2-one] was run?
Answer: 0.019 µM

Question: With `Cn1ccc(Cn2c(=O)[nH]c3ncc(-c4ccc(F)c(Cl)c4)cc32)n1` [Example 130, 6-(3-Chloro-4-fluoro-phenyl)-1-[(1-methylpyrazol-3-yl)methyl]-3H-imidazo[4,5-b]pyridin-2-one] as the compound, how does the IC50 [2] read?
Answer: 4.73 µM

Question: Which IC50 [1] does the source give for `Cc1c(F)ccc(-c2cnc3c(c2)n(CC(=O)N2CCC2)c(=O)n3CF)c1F` [Example 595, 1-[2-(Azetidin-1-yl)-2-oxo-ethyl]-6-(2,4-difluoro-3-methyl-phenyl)-3-(fluoromethyl)imidazo[4,5-b]pyridin-2-one] here?
Answer: 0.974 µM
